According to patent US8389513B2, “2-amino-5,5-difluoro-5,6-dihydro-4H-[1,3]oxazin-4-yl)-phenyl]-amides” (Hoffmann-La Roche Inc., priority 2009, dated 2013):
pIC50: −log10 of the molar value.

Assays:
BACE2 = target: T1, BACE2 (Rattus norvegicus, UniProt Q6IE75); experiment: Assay for BACE inhibition by measuring cellular TMEM27 cleavage; assay type: cell-based; details: INS-TMEM27 cells (INS1e-derived); shed TMEM27 by ELISA; read-out: BACE2 cell act. IC50
T1 construct: endogenous cellular BACE2 in the Ins1e rat cell line; endogenous in cells; host or cells: INS-TMEM27 (INS1e-derived rat cell line with TetOn-inducible full-length hTMEM27)
T1 sequence (Q6IE75 63-514): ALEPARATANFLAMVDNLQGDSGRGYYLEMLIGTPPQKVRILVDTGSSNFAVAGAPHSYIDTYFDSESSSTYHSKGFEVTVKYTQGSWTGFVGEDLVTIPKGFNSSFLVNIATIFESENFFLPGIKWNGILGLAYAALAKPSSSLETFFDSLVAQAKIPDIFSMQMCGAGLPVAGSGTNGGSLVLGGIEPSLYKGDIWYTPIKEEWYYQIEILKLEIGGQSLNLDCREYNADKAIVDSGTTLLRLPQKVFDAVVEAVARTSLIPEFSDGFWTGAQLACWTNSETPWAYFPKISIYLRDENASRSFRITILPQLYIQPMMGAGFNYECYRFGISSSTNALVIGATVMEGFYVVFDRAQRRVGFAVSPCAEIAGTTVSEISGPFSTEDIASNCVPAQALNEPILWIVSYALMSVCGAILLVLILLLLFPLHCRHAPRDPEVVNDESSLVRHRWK
Excerpt: Assay for BACE Inhibition by Measuring Cellular TMEM27 Cleavage:
The assay uses the principle of inhibition of human TMEM27 cleavage by endogenous cellular BACE2 in the Ins1e rat cell line and shedding from the cell surface into the culture medium, followed by detection in an ELISA assay. Inhibition of BACE2 prevents the cleavage and shedding in a dose-dependent manner.
The stable cell line “INS-TMEM27” represents an INS1e-derived cell line with inducible expression (using the TetOn system) of full-length hTMEM27 in a doxycycline-dependent manner. The cells are cultured throughout the experiment in RPMI1640+Glutamax (Invitrogen) Penicillin/Streptomycin, 10% Fetal bovine serum, […] pyruvate, […] beta-mercatptoethanol, 100 micrograms/ml G418 and 100 microgram/ml hygromycin and are grown inadherent culture at 37° C. in a standard CO2 cell culture incubator. INS-TMEM27 cells are seeded in 96-well plates. After 2 days in culture, BACE2 inhibitor is added in a range of concentrations as required by the assay and after a further two hours, doxycycline is added to a final concentration of 500 ng/ml. The cells are incubated for a further 46 hours and the supernatant harvested for detection of shed TMEM27.
An ELISA assay (using a pair of mouse anti-human-TMEM27 antibodies, raised against the extracellular domain of TMEM27) is used for detection of TMEM27 in the culture medium. An EC50 for BACE2 inhibition is calculated using the ELISA readout for each inhibitor concentration with standard curve-fitting software such as XLFit for the Excel spreadsheet program.

BACE1 = target: T2, BACE1 (Homo sapiens, UniProt P56817); experiment: Cellular Aβ-lowering assay (Aβ40 ELISA); assay type: cell-based; details: HEK293 cells stably expressing human APP695; Aβ40 in culture supernatant; read-out: BACE1 cell act. Aβ40 IC50
T2 construct: Human HEK293 cells which are stably transfected with a vector expressing a cDNA of the human APP wt gene (APP695); endogenous in cells; host or cells: HEK293 stably transfected with human APP695 wt
Method: Cellular Aβ-Lowering Assay:
Human HEK293 cells which are stably transfected with a vector expressing a cDNA of the human APP wt gene (APP695) were used to assess the potency of the compounds in a cellular assay. The cells were seeded in 96-well microtiter plates in cell culture medium (Iscove, plus 10% (v/v) fetal bovine serum, glutamine, penicillin/streptomycin) to about 80% confluence and the compounds were added at a 10× concentration in 1/10 volume of medium without FCS containing 8% DMSO (final concentration of DMSO was kept at 0.8% v/v). After 18-20 hrs incubation at 37° C. and 5% CO2 in a humidified incubator the culture supernatant was harvested for the determination of Aβ40 concentrations. […] Subsequently the wells of the microtiter plate were washed extensively with Tris-buffered saline containing 0.05% Tween 20 and the assay was developed with tetramethylbenzidine/H2O2 in citric acid buffer. After stopping the reaction with one volume 1 NH2SO4 the reaction was measured in an ELISA reader at 450 nm wavelength. The concentrations of Aβ in the culture supernatants were calculated from a standard curve obtained with known amounts of pure Aβ peptide.

T2 sequence (P56817 46-501): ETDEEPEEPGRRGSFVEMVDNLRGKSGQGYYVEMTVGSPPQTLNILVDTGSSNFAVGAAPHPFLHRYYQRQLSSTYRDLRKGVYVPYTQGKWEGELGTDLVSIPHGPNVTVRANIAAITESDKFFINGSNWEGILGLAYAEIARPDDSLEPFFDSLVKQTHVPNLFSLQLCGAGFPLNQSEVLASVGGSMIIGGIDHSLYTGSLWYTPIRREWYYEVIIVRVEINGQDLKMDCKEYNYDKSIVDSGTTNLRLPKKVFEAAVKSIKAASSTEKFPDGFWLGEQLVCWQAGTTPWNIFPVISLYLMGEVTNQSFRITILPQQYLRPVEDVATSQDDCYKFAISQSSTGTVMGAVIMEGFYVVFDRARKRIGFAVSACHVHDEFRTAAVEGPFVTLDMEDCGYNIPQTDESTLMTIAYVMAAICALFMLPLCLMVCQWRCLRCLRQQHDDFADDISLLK

SMILES | pIC50 (BACE2) | pIC50 (BACE1)
CC1(C)OC(N)=N[C@](C)(c2cc(NC(=O)c3ccc(OCF)cn3)ccc2F)C1(F)F [Example 26, 5-Fluoromethoxy-pyridine-2-carboxylic acid [3-((R)-2-amino-5,5-difluoro-4,6,6-trimethyl-5,6-dihydro-4H-[1,3]oxazin-4-yl)-4-fluoro-phenyl]-amide] | 6.12 | 7.52
CC1(C)OC(N)=N[C@](C)(c2cc(NC(=O)c3ccc(OC(F)F)cn3)ccc2F)C1(F)F [Example 27, 5-Difluoromethoxy-pyridine-2-carboxylic acid [3-((R)-2-amino-5,5-difluoro-4,6,6-trimethyl-5,6-dihydro-4H-[1,3]oxazin-4-yl)-4-fluoro-phenyl]-amide] | 5.27 | 7.33
CC1(C)OC(N)=N[C@](C)(c2cc(NC(=O)c3ccc(OCC(F)(F)F)cn3)ccc2F)C1(F)F [Example 29, 5-(2,2,2-Trifluoro-ethoxy)-pyridine-2-carboxylic acid [3-((R)-2-amino-5,5-difluoro-4,6,6-trimethyl-5,6-dihydro-4H-[1,3]oxazin-4-yl)-4-fluoro-phenyl]-amide] | 4.35 | 6.85
CC1(C)OC(N)=N[C@](C)(c2cc(NC(=O)c3ncc(Cl)cn3)ccc2F)C1(F)F [Example 32, 5-Chloro-pyrimidine-2-carboxylic acid [3-((R)-2-amino-5,5-difluoro-4,6,6-trimethyl-5,6-dihydro-4H-[1,3]oxazin-4-yl)-4-fluoro-phenyl]-amide] | 7.70 | 7.80
CC1(C)OC(N)=N[C@](C)(c2cc(NC(=O)c3ncc(C(F)(F)F)cn3)ccc2F)C1(F)F [Example 33, 5-Trifluoromethyl-pyrimidine-2-carboxylic acid [3-((R)-2-amino-5,5-difluoro-4,6,6-trimethyl-5,6-dihydro-4H-[1,3]oxazin-4-yl)-4-fluoro-phenyl]-amide] | 5.58 | 7.54
Cc1cnc(C(=O)Nc2ccc(F)c([C@@]3(C)N=C(N)OC(C)(C)C3(F)F)c2)cn1 [Example 34, 5-Methyl-pyrazine-2-carboxylic acid [3-((R)-2-amino-5,5-difluoro-4,6,6-trimethyl-5,6-dihydro-4H-[1,3]oxazin-4-yl)-4-fluoro-phenyl]-amide] | 5.45 | 7.37
CC1(C)OC(N)=N[C@](C)(c2cc(NC(=O)c3cnc(C(F)(F)F)cn3)ccc2F)C1(F)F [Example 35, 5-Trifluoromethyl-pyrazine-2-carboxylic acid [3-((R)-2-amino-5,5-difluoro-4,6,6-trimethyl-5,6-dihydro-4H-[1,3]oxazin-4-yl)-4-fluoro-phenyl]-amide] | 5.32 | 7.40
CC1(C)OC(N)=N[C@](C)(c2cc(NC(=O)c3ccc(Cl)nn3)ccc2F)C1(F)F [Example 37, 6-Chloro-pyridazine-3-carboxylic acid [3-((R)-2-amino-5,5-difluoro-4,6,6-trimethyl-5,6-dihydro-4H-[1,3]oxazin-4-yl)-4-fluoro-phenyl]-amide] | 4.29 | 6.15
C[C@]1(c2cc(NC(=O)c3ccc(OC(F)F)cn3)ccc2F)N=C(N)OCC1(F)F [Example 41, 5-Difluoromethoxy-pyridine-2-carboxylic acid [3-((R)-2-amino-5,5-difluoro-4-methyl-5,6-dihydro-4H-[1,3]oxazin-4-yl)-4-fluoro-phenyl]-amide] | 6.07 | 7.96
C[C@]1(c2cc(NC(=O)c3ccc(OCF)cn3)ccc2F)N=C(N)OCC1(F)F [Example 42, 5-Fluoromethoxy-pyridine-2-carboxylic acid [3-((R)-2-amino-5,5-difluoro-4-methyl-5,6-dihydro-4H-[1,3]oxazin-4-yl)-4-fluoro-phenyl]-amide] | 6.52 | 7.54

More lines, now with the values ahead:

pIC50 (BACE2) | pIC50 (BACE1) | SMILES
4.84 | 6.54 | C[C@]1(c2cc(NC(=O)c3ccc(OCC(F)(F)C(F)(F)F)cn3)ccc2F)N=C(N)OCC1(F)F [Example 44, 5-(2,2,3,3,3-Pentafluoro-propoxy)-pyridine-2-carboxylic acid [3-((R)-2-amino-5,5-difluoro-4-methyl-5,6-dihydro-4H-[1,3]oxazin-4-yl)-4-fluoro-phenyl]-amide]
4.59 | 6.40 | C[C@]1(c2cc(NC(=O)c3ccc(OCC(F)F)cn3)ccc2F)N=C(N)OCC1(F)F [Example 45, 5-(2,2-Difluoro-ethoxy)-pyridine-2-carboxylic acid [3-((R)-2-amino-5,5-difluoro-4-methyl-5,6-dihydro-4H-[1,3]oxazin-4-yl)-4-fluoro-phenyl]-amide]
4.46 | 6.28 | C[C@]1(c2cc(NC(=O)c3cnc(Cl)cn3)ccc2F)N=C(N)OCC1(F)F [Example 47, 5-Chloro-pyrazine-2-carboxylic acid [3-((R)-2-amino-5,5-difluoro-4-methyl-5,6-dihydro-4H-[1,3]oxazin-4-yl)-4-fluoro-phenyl]-amide]
5.17 | 5.95 | C[C@]1(c2cc(NC(=O)c3ncc(Cl)nc3Cl)ccc2F)N=C(N)OCC1(F)F [Example 48, 3,5-Dichloro-pyrazine-2-carboxylic acid [3-((R)-2-amino-5,5-difluoro-4-methyl-5,6-dihydro-4H-[1,3]oxazin-4-yl)-4-fluoro-phenyl]-amide]
6.82 | 7.59 | C[C@]1(c2cc(NC(=O)c3ccc(C#N)cn3)cc(F)c2F)N=C(N)OCC1(F)F [Example 49, 5-Cyano-pyridine-2-carboxylic acid [3-((R)-2-amino-5,5-difluoro-4-methyl-5,6-dihydro-4H-[1,3]oxazin-4-yl)-4,5-difluoro-phenyl]-amide]
7.62 | 7.77 | C[C@]1(c2cc(NC(=O)c3ccc(Cl)cn3)ccc2Cl)N=C(N)OCC1(F)F [Example 50, 5-Chloro-pyridine-2-carboxylic acid [3-((R)-2-amino-5,5-difluoro-4-methyl-5,6-dihydro-4H-[1,3]oxazin-4-yl)-4-chloro-phenyl]-amide]
6.49 | 7.70 | C[C@]1(c2cc(NC(=O)c3ccc(C#N)cn3)ccc2Cl)N=C(N)OCC1(F)F [Example 51, 5-Cyano-pyridine-2-carboxylic acid [3-((R)-2-amino-5,5-difluoro-4-methyl-5,6-dihydro-4H-[1,3]oxazin-4-yl)-4-chloro-phenyl]-amide]
7.46 | 8.05 | C[C@]1(c2cccc(NC(=O)c3ccc(Cl)cn3)c2)N=C(N)OCC1(F)F [Example 52, 5-Chloro-pyridine-2-carboxylic acid [3-((R)-2-amino-5,5-difluoro-4-methyl-5,6-dihydro-4H-[1,3]oxazin-4-yl)-phenyl]-amide]
6.46 | 7.89 | C[C@]1(c2cccc(NC(=O)c3ccc(C#N)cn3)c2)N=C(N)OCC1(F)F [Example 53, 5-Cyano-pyridine-2-carboxylic acid [3-((R)-2-amino-5,5-difluoro-4-methyl-5,6-dihydro-4H-[1,3]oxazin-4-yl)-phenyl]-amide]
6.61 | 6.20 | C[C@]1(c2cc(NC(=O)c3ncccc3OCC(F)(F)F)ccc2F)N=C(N)OCC1(F)F [Example 54, 3-(2,2,2-Trifluoro-ethoxy)-pyridine-2-carboxylic acid [3-((R)-2-amino-5,5-difluoro-4-methyl-5,6-dihydro-4H-[1,3]oxazin-4-yl)-4-fluoro-phenyl]-amide]
